Reference: patent US10307413B2, “Tetrahydro- and dihydro-isoquinoline PRMT5 inhibitors and uses thereof” (Epizyme, Inc., priority 2013, dated 2019)
pEC50: −log10 of the molar value.

Legend:
[1] = test system: symmetric di-methyl arginine in Z-138 cells; test: Z-138 Methylation Assay (In Cell Western for symmetric di-methyl arginine and DNA content); assay type: cell-based; settings: Homo sapiens, read-out: ICW EC50
Source text: [formula] [formula] Where top and bottom are the normally allowed to float, but may be fixed at 100 or 0 respectively in a 3-parameter fit. The Hill Coefficient normally allowed to float but may also be fixed at 1 in a 3-parameter fit. Y is the % inhibition and X is the compound concentration.
RPMI/Glutamax medium, penicillin-streptomycin, heat inactivated fetal bovine serum, and D-PBS were purchased from Life Technologies, Grand Island, N.Y., USA. Odyssey blocking buffer, 800CW goat anti-rabbit IgG (H+L) antibody, and Licor Odyssey infrared scanner were purchased from Licor Biosciences, Lincoln, Nebr., USA. Symmetric di-methyl arginine antibody was purchased from EMD Millipore, Billerica, Mass., USA. 16% Paraformaldehyde was purchased from Electron Microscopy Sciences, Hatfield, Pa., USA.
Cell Treatment, in Cell Western (ICW) for Detection of Symmetric Di-Methyl Arginine and DNA Content.
Z-138 cells were seeded in assay medium at a concentration of 50,000 cells per mL to a 384-well cell culture plate with 50 μL per well. Compound (100 nL) from 384 well source plates was added directly to 384 well cell plate. Plates were incubated at 37° C., 5% CO2 for 96 hours. […] Plates were incubated at room temperature for 30 minutes then incubated at 37° C., 5% CO2 for 5 hours. After the incubation, 40 μL per well of 8% paraformaldehyde in PBS (16% paraformaldahyde was diluted to 8% in PBS) was added to each plate and incubated for 30 minutes. […] Next 30 μL per well of Odyssey blocking buffer were added to each plate and incubated 1 hour at room temperature. Blocking buffer was removed and 20 μL per well of primary antibody was added (symmetric di-methyl arginine diluted 1:100 in Odyssey buffer with 0.1% Tween 20 (v/v)) and plates were incubated overnight (16 hours) at 4° C. Plates were washed 5 times with 100 μL per well of wash buffer. Next 20 μL per well of secondary antibody was added (1:200 800CW goat anti-rabbit IgG (H+L) antibody, 1:1000 DRAQ5 (Biostatus limited) in Odyssey buffer with 0.1% Tween 20 (v/v)) and incubated for 1 hour at room temperature. The plates were washed 5 times with 100 μL per well wash buffer then 1 time with 100 μL per well of water. Plates were allowed to dry at room temperature then imaged on the Licor Odyssey machine which measures integrated intensity at 700 nm and 800 nm wavelengths. Both 700 and 800 channels were scanned.
First, the ratio for each well was determined by:
Each plate included fourteen control wells of DMSO only treatment (minimum inhibition) as well as fourteen control wells for maximum inhibition treated with 3 μM of a reference compound (Background wells). The average of the ratio values for each control type was calculated and used to determine the percent inhibition for each test well in the plate. Reference compound was serially diluted three-fold in DMSO for a total of nine test concentrations, beginning at 3 μM. Percent inhibition was determined and IC50 curves were generated using triplicate wells per concentration of compound. Percent Inhibition=100−

[2] = test system: Z-138 cell line; test: Z-138 Proliferation Assay (Cell Titer Glo, 5 days); assay type: cell-based; settings: Homo sapiens, 120 h; Z-138 cells, 5 days; read-out: Proliferation EC50
Source text: RPMI/Glutamax medium, penicillin-streptomycin, heat inactivated fetal bovine serum were purchased from Life Technologies, Grand Island, N.Y., USA. V-bottom polypropylene 384-well plates were purchased from Greiner Bio-One, Monroe, N.C., USA. Cell culture 384-well white opaque plates were purchased from Perkin Elmer, Waltham, Mass., USA. Cell-Titer Glo® was purchased from Promega Corporation, Madison, Wis., USA. SpectraMax M5 plate reader was purchased from Molecular Devices LLC, Sunnyvale, Calif., USA.
A compound source plate was prepared by performing triplicate nine-point 3-fold serial dilutions in DMSO, beginning at 10 mM (final top concentration of compound in the assay was 20 μM and the DMSO was 0.2%). A 100 nL aliquot from the compound stock plate was added to its respective well in the cell plate. […] After addition of compounds, assay plates were incubated for 5 days at 37° C., 5% CO2, relative humidity >90%.
Cell viability was measured by quantitation of ATP present in the cell cultures, adding […] of Cell Titer Glo® reagent to the cell plates. Luminescence was read in the SpectraMax M5 microplate reader. The concentration of compound inhibiting cell viability by 50% was determined using a 4-parametric fit of the normalized dose response curves.

Row | Compound | pEC50 [1] | pEC50 [2]
1 | CN1CCN(Cc2cccc(C(=O)NCC(O)CN3CCc4ccccc4C3)c2)CC1CO (stereo not shown) [Compound 253] | 6.00 to 7.00 | 5.00 to 6.00
2 | COCCCNc1cccc(C(=O)NCC(O)CN2CCc3ccccc3C2)c1 (stereo not shown) [Compound 69] | 5.00 to 6.00 | < 4.70
3 | CNC(=O)CNCc1cccc(C(=O)NCC(O)CN2CCc3ccccc3C2)c1 (stereo not shown) [Compound 117] | 6.00 to 7.00 | < 4.70
4 | O=C(NC[C@H](O)CN1CCc2ccccc2C1)c1cccc2c1OCCO2 [Compound 249] | 6.00 to 7.00 | 4.30 to 5.00
5 | O=C(NC[C@H](O)CN1CCc2ccccc2C1)Nc1ccccc1 [Compound 5] | 6.00 to 7.00 | < 4.70
6 | O=C(NC[C@H](O)CN1CCc2ccccc2C1)c1c(O)ccc2ccccc12 [Compound 327] | 6.00 to 7.00 | < 4.70
7 | CN1CCC(N(C)c2cccc(C(=O)NCC(O)CN3CCc4ccccc4C3)c2)C1 (stereo not shown) [Compound 132] | 6.00 to 7.00 | 5.00 to 6.00
8 | CS(=O)(=O)Nc1cccc(C(=O)NCC(O)CN2CCc3ccccc3C2)c1 (stereo not shown) [Compound 24] | 6.00 to 7.00 | 5.00 to 6.00
9 | CC(=O)N1CCC(Nc2cc(C(=O)NC[C@H](O)CN3CCc4ccccc4C3)ncn2)C1 (stereo partly shown) [Compound 210] | > 7.00 | 6.00 to 7.00
10 | O=C(NCC(O)CN1CCc2ccccc2C1)c1cccc(-n2cncn2)c1 (stereo not shown) [Compound 130] | 6.00 to 7.00 | 4.30 to 5.00
11 | CC(=O)N1CCC(Nc2cc(C(=O)NC[C@H](O)CN3CCc4ccccc4C3)ncn2)CC1 [Compound 208, (S)-6-((1-acetylpiperidin-4-yl)amino)-N-(3-(3,4-dihydroisoquinolin-2(1H)-yl)-2-hydroxypropyl)pyrimidine-4-carboxamide] | > 7.00 | > 7.00
12 | O=C(NCC(O)CN1CCc2ccccc2C1)c1ccc(NC2CCN(CC(F)(F)F)CC2)cc1 (stereo not shown) [Compound 128] | > 7.00 | 5.00 to 6.00
13 | O=C(O)CN1CCN(Cc2cccc(C(=O)NCC(O)CN3CCc4ccccc4C3)c2)CC1 (stereo not shown) [Compound 157] | 5.00 to 6.00 | < 4.70
14 | CNCCNc1cc(C(=O)NC[C@H](O)CN2CCc3ccccc3C2)ccn1 [Compound 314] | > 7.00 | 4.30 to 5.00
15 | Cn1nccc1-c1cccc(C(=O)NCC(O)CN2CCc3ccccc3C2)c1 (stereo not shown) [Compound 2, N-(3-(3,4-dihydroisoquinolin-2(1H)-yl)-2-hydroxypropyl)-3-(1-methyl-1H-pyrazol-5-yl)benzamide] | > 7.00 | 5.00 to 6.00
16 | O=C(NCC(O)CN1CCc2ccccc2C1)c1cccc(OC2CCN(CC(F)(F)F)C2)c1 (stereo not shown) [Compound 137] | > 7.00 | 5.00 to 6.00

Row | Compound | pEC50 [1] | pEC50 [2]
17 | COc1cc(CN2CCN(C)CC2)cc(C(=O)NCC(O)CN2CCc3ccccc3C2)c1 (stereo not shown) [Compound 160] | 6.00 to 7.00 | 4.30 to 5.00
18 | O=C(NC[C@H](O)CN1CCc2ccccc2C1)c1nccc2ccccc12 [Compound 272] | > 7.00 | 5.00 to 6.00
19 | O=C(NC[C@H](O)CN1CCc2ccccc2C1)c1cncc(NC2CCOC2)c1 (stereo partly shown) [Compound 211] | > 7.00 | > 7.00
20 | CN(C)C(=O)CNCc1cccc(C(=O)NCC(O)CN2CCc3ccccc3C2)c1 (stereo not shown) [Compound 118] | 6.00 to 7.00 | < 4.70
21 | O=C(NCC(O)CN1CCc2ccccc2C1)c1cccc(-c2ccncc2)c1 (stereo not shown) [Compound 9, N-(3-(3,4-dihydroisoquinolin-2(1H)-yl)-2-hydroxypropyl)-3-(pyridin-4-yl)benzamide] | > 7.00 | 5.00 to 6.00
22 | O=C(NC[C@H](O)CN1CCc2ccccc2C1)c1cc2c(F)cccc2[nH]1 [Compound 296] | > 7.00 | 6.00 to 7.00
23 | CC(=O)N1CCC(Nc2cc(C(=O)NC[C@H](O)CN3CCc4ccccc4C3)ccn2)C1 (stereo partly shown) [Compound 228] | > 7.00 | 6.00 to 7.00
24 | O=C(NCC(O)CN1CCc2ccccc2C1)c1ccc(OC2CCNC2)cc1 (stereo not shown) [Compound 176] | > 7.00 | 5.00 to 6.00
25 | NC(=O)CNCc1cccc(C(=O)NCC(O)CN2CCc3ccccc3C2)c1 (stereo not shown) [Compound 116] | 6.00 to 7.00 | < 4.70
26 | COc1cc(C(=O)NC[C@H](O)CN2CCc3ccccc3C2)cc(NC2CCC2)n1 [Compound 332] | > 7.00 | > 7.00
27 | CS(=O)(=O)N1CCC(Oc2ccc(C(=O)NCC(O)CN3CCc4ccccc4C3)cc2)CC1 (stereo not shown) [Compound 108] | > 7.00 | 6.00 to 7.00
28 | CC(=O)N1CCC(Oc2ccc(C(=O)NCC(O)CN3CCc4ccccc4C3)cc2)C1 (stereo not shown) [Compound 197] | > 7.00 | 6.00 to 7.00
29 | COc1ccc2cc(C(=O)NC[C@H](O)CN3CCc4ccccc4C3)ccc2c1 [Compound 251] | > 7.00 | 5.00 to 6.00
30 | O=C(NC[C@H](O)CN1CCc2ccccc2C1)c1ccnc(NCC2CCCNC2)c1 (stereo partly shown) [Compound 236] | 6.00 to 7.00 | 5.00 to 6.00
31 | O=C(NCC(O)CN1CCc2ccccc2C1)c1cccc(C2CCOC2)c1 (stereo not shown) [Compound 154] | 6.00 to 7.00 | 5.00 to 6.00

Now from value to compound, other results behind:

Row | pEC50 [1] | Compound | pEC50 [2]
32 | > 7.00 | CN(C)CCNc1cc(C(=O)NC[C@H](O)CN2CCc3ccccc3C2)ccn1 [Compound 214] | 5.00 to 6.00
33 | > 7.00 | O=C(NCC(O)CN1CCc2ccccc2C1)c1ccc(-n2cncn2)cc1 (stereo not shown) [Compound 110] | 5.00 to 6.00
34 | > 7.00 | CC(C)(C)c1cc(Nc2cc(C(=O)NC[C@H](O)CN3CCc4ccccc4C3)ccn2)n[nH]1 [Compound 326] | 6.00 to 7.00
35 | > 7.00 | CN(CCNc1cc(C(=O)NC[C@H](O)CN2CCc3ccccc3C2)ccn1)S(C)(=O)=O [Compound 262] | 6.00 to 7.00
36 | > 7.00 | CN1CCC(Oc2cc(C(=O)NC[C@H](O)CN3CCc4ccccc4C3)ccn2)CC1 [Compound 202] | 5.00 to 6.00
37 | > 7.00 | CC(C)(C)C(=O)N1CCC(Oc2ccc(C(=O)NC[C@H](O)CN3CCc4ccccc4C3)cc2)CC1 [Compound 322] | 6.00 to 7.00
38 | > 7.00 | CN1CCN(Cc2ccc(C(=O)NCC(O)CN3CCc4ccccc4C3)cc2)CC1 (stereo not shown) [Compound 163] | 5.00 to 6.00
39 | > 7.00 | CN1CCC(Nc2cccc(C(=O)NC[C@H](O)CN3CCc4ccccc4C3)c2)CC1 [Compound 239] | 5.00 to 6.00
40 | > 7.00 | O=C(NC[C@H](O)CN1CCc2ccccc2C1)c1cc(NC2CCNC2)ncn1 (stereo partly shown) [Compound 209] | 4.30 to 5.00
41 | > 7.00 | O=C(NC[C@H](O)CN1CCc2ccccc2C1)c1ccnc(NCc2ccncc2)c1 [Compound 189] | 6.00 to 7.00
42 | > 7.00 | O=C(NC[C@H](O)CN1CCc2ccccc2C1)c1ccnc(OC2CCOCC2)c1 [Compound 323] | 6.00 to 7.00
43 | > 7.00 | CS(=O)(=O)N1CCC(Oc2cc(C(=O)NC[C@H](O)CN3CCc4ccccc4C3)ccn2)CC1 [Compound 204] | 6.00 to 7.00
44 | > 7.00 | CS(=O)(=O)N1CC(Nc2cc(C(=O)NC[C@H](O)CN3CCc4ccccc4C3)ccn2)C1 [Compound 278] | 6.00 to 7.00
45 | > 7.00 | CC1CC(Nc2cccc(C(=O)NC[C@@H](O)CN3CCc4ccccc4C3)c2)CC(C)O1 (stereo partly shown) [Compound 153] | 6.00 to 7.00
46 | > 7.00 | CN1CCC(Oc2ccc(C(=O)NCC(O)CN3CCc4ccccc4C3)cc2)CC1 (stereo not shown) [Compound 105] | 5.00 to 6.00
47 | > 7.00 | O=C(NCC(O)CN1CCc2ccccc2C1)c1ccc(CN2CCNCC2)cc1 (stereo not shown) [Compound 143] | 5.00 to 6.00
